Here are results for seven molecules from paper PMC411064 (BMC Medicine, 2004).

“And” between values parts separate entries of the source, which are not always exact repeats. Equal entries are not always repeated. Where two headings read alike, the source gives them in different places. Marks after values point to notes of the source that are not given here.

In data set [1] the test system is Caco-2 cells. Description: CPT directional transport across Caco-2 cell monolayers. The class given is in vitro ADME, human.
Data set [2] has as its target human P-glycoprotein (PGP) (ABCB1) (Homo sapiens, UniProt P08183). Description: CPT directional transport across MDCK II/PGP cell monolayers. The class given is in vitro ADME.
Data set [3] deals with human multidrug resistance protein 2 (MRP2) (ABCC2) (Homo sapiens, UniProt Q92887). Description: CPT directional transport across MDCK II/MRP2 cell monolayers. The class given is in vitro ADME.
The nature of data set [4]: CPT directional transport across MDCK II/wt cell monolayers. The class given is in vitro ADME, dog. To be noted: dog, MDCK, pH 7.4.
The test system of a further data set is MDCK II/wt cells. The description is as above. The class given is in vitro ADME, dog. The note with it: MDCK II/wt.
The conditions of data set [5]: cited from earlier work; for observed variability in the area under the curve: oral.
The format of data set [6] is in vitro ADME. The note with it: rat intestinal and liver s9 fractions and microsomes; data not shown.
Data set [7] relates to Caco-2 cells. The data set can be described thus: Inhibition of CPT efflux. The class given is in vitro ADME, human. To be noted: for decrease of CPT secretory permeability in the presence of inhibitor: BL to AP.
For data set [8] the following is noted: read-out: Km value of etoposide; estimated in the authors' laboratory; cited from earlier work.
Data set [9] deals with CC[C@@]1(O)C(=O)OCc2c1cc1n(c2=O)Cc2cc3ccccc3nc2-1. The data set can be described thus: CPT directional transport across MDCK II/PGP cell monolayers. It counts as in vitro ADME, human. The note with it: other: MDCK II/PGP, 37.0 °C.
Substrate in data set [10]: CC[C@@]1(O)C(=O)OCc2c1cc1n(c2=O)Cc2cc3ccccc3nc2-1
Description: CPT directional transport across MDCK II/MRP2 cell monolayers. The note with it: other: MDCK II/MRP2, 37.0 °C. The class given is in vitro ADME, human.

Where [11] appears, read: orally administered, clinical evaluation.

Sequence of human P-glycoprotein (PGP) (ABCB1) (P08183 whole entry): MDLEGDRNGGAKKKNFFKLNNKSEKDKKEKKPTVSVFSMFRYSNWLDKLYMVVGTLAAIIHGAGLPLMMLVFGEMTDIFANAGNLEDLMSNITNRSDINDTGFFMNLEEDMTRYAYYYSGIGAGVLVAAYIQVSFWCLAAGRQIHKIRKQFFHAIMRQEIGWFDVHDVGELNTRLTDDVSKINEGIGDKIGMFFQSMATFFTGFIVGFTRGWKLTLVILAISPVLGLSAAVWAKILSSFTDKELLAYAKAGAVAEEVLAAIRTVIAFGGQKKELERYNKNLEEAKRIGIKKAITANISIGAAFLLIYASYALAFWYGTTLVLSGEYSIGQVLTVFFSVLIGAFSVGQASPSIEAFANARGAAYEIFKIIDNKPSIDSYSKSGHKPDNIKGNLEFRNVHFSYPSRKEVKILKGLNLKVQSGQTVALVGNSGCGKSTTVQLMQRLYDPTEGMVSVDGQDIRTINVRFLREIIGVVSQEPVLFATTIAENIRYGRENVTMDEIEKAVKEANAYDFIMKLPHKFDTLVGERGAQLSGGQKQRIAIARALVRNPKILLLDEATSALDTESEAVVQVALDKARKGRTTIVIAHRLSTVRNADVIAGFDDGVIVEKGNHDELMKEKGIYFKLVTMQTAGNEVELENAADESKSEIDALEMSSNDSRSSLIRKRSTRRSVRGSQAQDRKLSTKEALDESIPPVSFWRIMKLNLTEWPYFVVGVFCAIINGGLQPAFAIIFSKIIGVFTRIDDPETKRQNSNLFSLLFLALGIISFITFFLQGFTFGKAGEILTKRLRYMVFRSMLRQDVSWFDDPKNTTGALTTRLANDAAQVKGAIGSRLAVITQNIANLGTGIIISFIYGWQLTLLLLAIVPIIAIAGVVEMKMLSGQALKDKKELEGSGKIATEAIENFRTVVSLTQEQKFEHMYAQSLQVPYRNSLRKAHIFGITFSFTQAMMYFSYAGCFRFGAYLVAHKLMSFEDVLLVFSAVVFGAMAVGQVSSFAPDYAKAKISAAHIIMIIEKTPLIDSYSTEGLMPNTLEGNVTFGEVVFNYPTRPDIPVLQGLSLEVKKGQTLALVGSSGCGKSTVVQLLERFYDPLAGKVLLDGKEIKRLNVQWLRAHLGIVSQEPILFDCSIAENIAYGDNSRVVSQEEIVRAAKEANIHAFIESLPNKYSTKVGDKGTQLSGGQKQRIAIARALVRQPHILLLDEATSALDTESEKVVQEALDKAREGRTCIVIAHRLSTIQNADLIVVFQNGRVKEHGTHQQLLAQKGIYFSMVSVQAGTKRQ

The Km is the substrate concentration at which the rate is half of its maximum. As a reminder, the efflux ratio is a quotient of directional permeabilities that is used to spot active efflux. Take `CC[C@@]1(O)C(=O)OCc2c1cc1n(c2=O)Cc2cc3ccccc3nc2-1` [CPT, 20-(S)-camptothecin]: the “Pc carrier permeability, absorptive” value with Caco-2 cells [1] (AP to BL) was found to be 8.3 ± 0.3 cm/s × 10^5; in data set [2] (AP to BL), 2.2 ± 0.5 cm/s × 10^5; in data set [3] (AP to BL), 2.5 ± 0.4 cm/s × 10^5; in the data set on MDCK II/wt cells (AP to BL), 2.5 ± 0.7 cm/s × 10^5. Also, in the data set with Caco-2 cells [1] (AP to BL, estimated as Peff at 4°C), the “Pm passive permeability, absorptive” value is given as 0.43 ± 0.05^a cm/s × 10^5. Further, the “Pc carrier permeability, secretory” value in the data set on Caco-2 cells [1] (BL to AP) is given as 2.1 ± 0.1 cm/s × 10^5; in data set [2] (BL to AP), 4.1 ± 0.4 cm/s × 10^5; in data set [3] (BL to AP), 4.3 ± 0.7 cm/s × 10^5; in the data set with MDCK II/wt cells (BL to AP) it was 2.0 ± 0.2 cm/s × 10^5. The “energy of activation (Ea) of efflux” value with Caco-2 cells [1] (BL to AP, Arrhenius plot, 4°C to 37°C) is ~ 11.3 kcal/mole. In the data set with Caco-2 cells [1] (BL to AP, estimated as efflux Peff at 4°C), the “Pm passive permeability, secretory” value was 0.35 ± 0.04^a cm/s × 10^5. Moreover, in the data set on Caco-2 cells [1] (BL to AP, weighted nonlinear regression), the “Pc for CPT secretory efflux” value is listed as 2.1 ± 0.1 × 10^-5 cm/s. Besides, the Km was 132 µM and 133 µM with Caco-2 cells [1] (read-out: Km, secretory (bisolateral to apical), BL to AP, weighted nonlinear regression); 71.5 ± 9.7 µM in the data set on MDCK II/wt cells (read-out: Km, absorptive (apical to bisolateral), AP to BL); 81.3 ± 14.6 µM with MDCK II/wt cells (read-out: Km, secretory (bisolateral to apical), BL to AP). For the same molecule, the efflux ratio at 105 min in data set [4] is approximately 1. For the same molecule, the “variability in the area under the curve” value in [5] (setting [11]) is given as 164%. For the same molecule, the “variability in the bioavailability” value in data set [5] (setting [11]) is 10 fold. The degradation on incubation result in [6] is “Minimal degradation”.
Regarding `CCc1c2c(nc3ccc(OC(=O)N4CCC(N5CCCCC5)CC4)cc13)-c1cc3c(c(=O)n1C2)COC(=O)[C@]3(O)CC` [CPT-11, irinotecan], the “observed variability in the area under the curve” value in data set [5] was 50%.
For `COc1cc2c(cc1OC)CN(CCc1ccc(NC(=O)c3cccc4c(=O)c5cccc(OC)c5[nH]c34)cc1)CC2` [GF120918], the “decrease of CPT secretory permeability in the presence of inhibitor” value with Caco-2 cells [7] was found to be 52.5%. Besides, in the data set with Caco-2 cells [7] (GF120918 0.4 μM, CPT 10 μM), the “reduction of CPT efflux” value was 2.1 fold. In addition, the “effect of increasing inhibitor concentration on CPT efflux” value with Caco-2 cells [7] (GF120918 0.8–1.2 μM, data not shown) was “not further reduced”.
With `CC[C@@]1(O)C(=O)OCc2c1cc1n(c2=O)Cc2cc3c(CN(C)C)c(O)ccc3nc2-1` [TPT, topotecan], the “observed variability in the area under the curve” value in [5] was 41%.
Consider `COc1cc([C@@H]2c3cc4c(cc3[C@@H](O[C@@H]3O[C@@H]5CO[C@@H](C)O[C@H]5[C@H](O)[C@H]3O)[C@H]3COC(=O)[C@H]23)OCO4)cc(OC)c1O` [etoposide], for which, in [8], the Km is approximately 213 µM. In addition, the “decrease of CPT secretory permeability in the presence of inhibitor” value in the data set on Caco-2 cells [7] turned out to be 25.6%. The “reduction of CPT efflux permeability” value with Caco-2 cells [7] (etoposide 200 μM, CPT 10 μM) amounted to 1.3 fold.
Take “human P-glycoprotein (PGP) (ABCB1) (Homo sapiens)”: the results for the Km in data set [9] (AP to BL) and in data set [9] (BL to AP) were 69.7 ± 7.6 µM and 36.3 ± 7.5 µM, respectively.

B1: human multidrug resistance protein 2 (MRP2) (ABCC2) (Homo sapiens) (protein)
chain: MLEKFCNSTFWNSSFLDSPEADLPLCFEQTVLVWIPLGYLWLLAPWQLLHVYKSRTKRSSTTKLYLAKQVFVGFLLILAAIELALVLTEDSGQATVPAVRYTNPSLYLGTWLLVLLIQYSRQWCVQKNSWFLSLFWILSILCGTFQFQTLIRTLLQGDNSNLAYSCLFFISYGFQILILIFSAFSENNESSNNPSSIASFLSSITYSWYDSIILKGYKRPLTLEDVWEVDEEMKTKTLVSKFETHMKRELQKARRALQRRQEKSSQQNSGARLPGLNKNQSQSQDALVLEDVEKKKKKSGTKKDVPKSWLMKALFKTFYMVLLKSFLLKLVNDIFTFVSPQLLKLLISFASDRDTYLWIGYLCAILLFTAALIQSFCLQCYFQLCFKLGVKVRTAIMASVYKKALTLSNLARKEYTVGETVNLMSVDAQKLMDVTNFMHMLWSSVLQIVLSIFFLWRELGPSVLAGVGVMVLVIPINAILSTKSKTIQVKNMKNKDKRLKIMNEILSGIKILKYFAWEPSFRDQVQNLRKKELKNLLAFSQLQCVVIFVFQLTPVLVSVVTFSVYVLVDSNNILDAQKAFTSITLFNILRFPLSMLPMMISSMLQASVSTERLEKYLGGDDLDTSAIRHDCNFDKAMQFSEASFTWEHDSEATVRDVNLDIMAGQLVAVIGPVGSGKSSLISAMLGEMENVHGHITIKGTTAYVPQQSWIQNGTIKDNILFGTEFNEKRYQQVLEACALLPDLEMLPGGDLAEIGEKGINLSGGQKQRISLARATYQNLDIYLLDDPLSAVDAHVGKHIFNKVLGPNGLLKGKTRLLVTHSMHFLPQVDEIVVLGNGTIVEKGSYSALLAKKGEFAKNLKTFLRHTGPEEEATVHDGSEEEDDDYGLISSVEEIPEDAASITMRRENSFRRTLSRSSRSNGRHLKSLRNSLKTRNVNSLKEDEELVKGQKLIKKEFIETGKVKFSIYLEYLQAIGLFSIFFIILAFVMNSVAFIGSNLWLSAWTSDSKIFNSTDYPASQRDMRVGVYGALGLAQGIFVFIAHFWSAFGFVHASNILHKQLLNNILRAPMRFFDTTPTGRIVNRFAGDISTVDDTLPQSLRSWITCFLGIISTLVMICMATPVFTIIVIPLGIIYVSVQMFYVSTSRQLRRLDSVTRSPIYSHFSETVSGLPVIRAFEHQQRFLKHNEVRIDTNQKCVFSWITSNRWLAIRLELVGNLTVFFSALMMVIYRDTLSGDTVGFVLSNALNITQTLNWLVRMTSEIETNIVAVERITEYTKVENEAPWVTDKRPPPDWPSKGKIQFNNYQVRYRPELDLVLRGITCDIGSMEKIGVVGRTGAGKSSLTNCLFRILEAAGGQIIIDGVDIASIGLHDLREKLTIIPQDPILFSGSLRMNLDPFNNYSDEEIWKALELAHLKSFVASLQLGLSHEVTEAGGNLSIGQRQLLCLGRALLRKSKILVLDEATAAVDLETDNLIQTTIQNEFAHCTVITIAHRLHTIMDSDKVMVLDNGKIIECGSPEELLQIPGPFYFMAKEAGIENVNSTKF
Regarding B1, the Km in data set [10] (AP to BL) came to 101.2 ± 17.8 µM; in [10] (BL to AP), 65.8 ± 6.7 µM.
